From ChEMBL document CHEMBL1159363, “New cytotoxic alkaloids from the wood of Vepris punctata from the Madagascar rainforest” (J Nat Prod, 2003) come the findings set out here.

≈ marks a conversion by molar mass, not a printed value.

What is called IC50 is the midpoint of a concentration-inhibition curve. Low readings indicate greater potency in that assay, high ones weaker potency in that assay.

For this assay, the system named is A2780. Put plainly: Cytotoxicity against human A2780 cells. It is filed as functional, cell-based.
`COc1ccc2c(OC)c3ccoc3nc2c1OC` [SKIMMIANINE] showed a concentration for half-maximal inhibition (IC50) of 4.2 µg/mL (≈ 16.2 µM).

Turning to `COc1c2c(c(OC)c3c(OC)c4ccoc4nc13)OCO2`, the concentration for half-maximal inhibition (IC50) worked out at 3.5 µg/mL (≈ 11.5 µM).

In turn, `COc1c(OC)c(OC)c2c(OC)c3ccoc3nc2c1OC` gave an IC50 of 3.4 µg/mL (≈ 10.6 µM).

For the compound `COc1c2c(cc3nc4occc4c(OC)c13)OCO2`, the 50% inhibitory concentration (IC50) is 2.8 µg/mL (≈ 10.2 µM).

On to `COc1c2cc3c(cc2nc2occc12)OCO3` [MACULINE], for which the midpoint of inhibition, the IC50, lay at 4 µg/mL (≈ 16.4 µM).

With `COc1c2ccoc2nc2c(OC)c3c(cc12)OCO3` [FLINDERSIAMINE], the midpoint of inhibition, the IC50, lay at 3.3 µg/mL (≈ 12.1 µM).

The compound `COc1cc2nc3occc3c(OC)c2cc1OC` [KOKUSAGININE] showed an IC50 of 3.5 µg/mL (≈ 13.5 µM).
